Legend:
delF508-CFTR-HRP = target: T1, delF508-CFTR-HRP (Homo sapiens, UniProt P13569, DEL508-508); experiment: Measurement of delF508-CFTR-HRP surface expression in CFBE41o- cells (HRP luminescence); format: cell-based; details: for Emax: CFBE41o-, read-out: DelF508-CFTR-HRP Amax %; for EC50: mean of at least two replicates;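 as to DelF508-CFTR-HRP Amax %: percent efficacy relative to a reference CFTR corrector compound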
T1 construct: expressed in transfected cells
Method in brief: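 EC50 derived by logistic regression of triplicate surface-HRP luminescence, plate-normalized to the lowest-concentration median. Doxycycline (500 ng/mL, 48 h) induced delF508-CFTR-HRP in CFBE41o- cells; compounds then applied 24 h at 37° C, 10 μM top, 3-fold over 10 points.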

delF508-CFTR = target: T2, delF508-CFTR (Homo sapiens, UniProt P13569, DEL508-508); experiment: delF508-CFTR functional activity in primary human bronchial epithelial cells (HBECs), Multi-Transepithelial Clamp Circuit (MTECC-24) assay, equivalent short circuit current; format: cell-based; details: primary CF HBECs; for MTECC24 CFHBEC-Amax %: relative to reference combination 2 μM 3-(6-(1-(2,2-difluorobenzo[d][1,3]dioxol-5-yl)cyclopropane-1-carboxamido)-3-methylpyridin-2-yl)benzoic acid (24 h) + 0.5 μM N-(2,4-di-tert-butyl-5-hydroxyphenyl)-4-oxo-1,4-dihydroquinoline-3-carboxamide; for EC50: test compound added 24 h before assay, potentiator (S)-3-amino-6-methoxy-N-(3,3,3-trifluoro-2-hydroxy-2-methylpropyl)-5-(trifluoromethyl)picolinamide present at assay, mean of at least two replicates, read-out: MTECC24 CFHBEC-EC50
T2 construct: functional activity of the CFTR channel (Chloride ion transport) in patient derived primary human bronchial epithelial cells; host or cells: patient-derived primary human bronchial epithelial cells (HBECs), delF508-CFTR
T2 sequence (P13569 with tags, fused parts or gaps DEL508-508): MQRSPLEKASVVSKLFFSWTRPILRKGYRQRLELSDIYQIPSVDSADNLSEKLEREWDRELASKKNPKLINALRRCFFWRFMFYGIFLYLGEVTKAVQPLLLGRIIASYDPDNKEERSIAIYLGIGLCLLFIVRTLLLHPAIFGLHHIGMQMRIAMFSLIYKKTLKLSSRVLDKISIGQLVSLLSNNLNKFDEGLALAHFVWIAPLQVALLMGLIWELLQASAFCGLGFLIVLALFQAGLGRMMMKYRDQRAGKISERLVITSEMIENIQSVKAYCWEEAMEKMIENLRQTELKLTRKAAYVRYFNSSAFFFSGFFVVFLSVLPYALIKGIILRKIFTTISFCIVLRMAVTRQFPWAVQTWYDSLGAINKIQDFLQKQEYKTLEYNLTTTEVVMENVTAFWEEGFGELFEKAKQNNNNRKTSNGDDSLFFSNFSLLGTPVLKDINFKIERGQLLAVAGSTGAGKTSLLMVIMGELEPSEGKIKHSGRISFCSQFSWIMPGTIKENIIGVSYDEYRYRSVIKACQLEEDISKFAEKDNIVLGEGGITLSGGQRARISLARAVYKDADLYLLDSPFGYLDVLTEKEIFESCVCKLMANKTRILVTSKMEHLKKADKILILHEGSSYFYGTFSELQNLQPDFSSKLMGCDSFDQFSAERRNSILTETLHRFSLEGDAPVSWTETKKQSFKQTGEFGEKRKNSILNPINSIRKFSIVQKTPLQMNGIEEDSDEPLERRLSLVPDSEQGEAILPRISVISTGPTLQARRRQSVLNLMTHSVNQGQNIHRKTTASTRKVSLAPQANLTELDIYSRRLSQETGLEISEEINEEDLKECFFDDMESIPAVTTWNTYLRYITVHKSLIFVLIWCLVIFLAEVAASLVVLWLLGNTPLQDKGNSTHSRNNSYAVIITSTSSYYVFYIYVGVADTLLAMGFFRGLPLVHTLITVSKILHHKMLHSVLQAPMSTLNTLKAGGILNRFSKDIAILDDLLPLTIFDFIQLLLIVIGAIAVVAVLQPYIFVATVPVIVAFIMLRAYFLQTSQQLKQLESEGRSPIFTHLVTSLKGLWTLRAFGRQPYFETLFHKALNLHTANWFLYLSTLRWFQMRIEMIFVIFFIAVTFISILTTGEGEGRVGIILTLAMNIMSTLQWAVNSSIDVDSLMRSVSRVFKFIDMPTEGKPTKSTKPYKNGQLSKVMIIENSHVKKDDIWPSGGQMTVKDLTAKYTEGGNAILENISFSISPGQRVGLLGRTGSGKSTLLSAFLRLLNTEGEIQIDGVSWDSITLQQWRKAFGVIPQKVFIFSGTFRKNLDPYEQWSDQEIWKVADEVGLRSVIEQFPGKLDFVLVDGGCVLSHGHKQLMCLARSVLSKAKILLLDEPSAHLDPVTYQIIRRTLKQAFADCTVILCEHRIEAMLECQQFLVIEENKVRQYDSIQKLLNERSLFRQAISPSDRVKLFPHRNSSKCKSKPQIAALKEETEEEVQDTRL
Text: Measurement of delF508-CFTR Functional Activity in Primary Human Bronchial Epithelial Cells (HBECs) Using Multi-Transepithelial Clamp Circuit (MTECC-24) Assay
This assay measures the functional activity of the CFTR channel (Chloride ion transport) in patient derived primary human bronchial epithelial cells with forskolin activation and in the presence of the CFTR corrector wherein the corrector is a compound of the invention and the potentiator is (S)-3-amino-6-methoxy-N-(3,3,3-trifluoro-2-hydroxy-2-methylpropyl)-5-(trifluoromethyl)picolinamide.
Primary human delF508-CFTR bronchial epithelial cells were purchased from Asterand and cultured according to previously established methods (Fulcher et al. (2005) Methods Mol Med 107: 183-206). Briefly, vendor supplied cells were rapidly defrosted and added to a T175 flask in 50 mL growth media (Lonza BEBM media with Lonza BEGM singlequots). Media was replaced after 24 h and then cells were fed every other day until cells were 80-90% confluent, at which point cells were cryopreserved. These P1 vials were thawed at 37° C. as needed and added to T175 flasks in 50 mL growth media at 5×10^5 cells/flask. Media was replaced after 24 h, and then cells were fed every other day until 80-90% confluent. Cells were lifted with 5 mL Accutase at 37° C. for 5 minutes, centrifuged at 1000 rpms for 5 min (300 g), and resuspended in differentiation media (50% BEBM in DMEM, BEGM singlequots, all trans retinoic acid (5×10·8M)). Cells were then counted and cell suspension was added to collagen coated inserts at 3×10^4 cells/insert in 0.15 mL with 0.5 mL differentiation media on the basolateral side.
Apical and basolateral media were replaced on alternate days, and following day 7 (or when confluent plus 2 days), air liquid interface was established for approximately two weeks by removal of apical media. One day prior to use on the MTECC24 system (EP-Devices, EP Design, Belgium), 0.15 mL of warmed (37° C.) PBS was added to the apical surface of the cultures and returned to humidifier (37° C., 5% CO2 incubator) for 30 min before aspirating the apical surface to remove any mucus.
Compound treatments were then prepared. Compound dilutions, typically a 10 point concentration response with 1 in 3 dilution steps, were made in 100% DMSO before dilution 1 in 1000 into differentiation medium with a final DMSO concentration of 0.1% or 0.2% for the study. Compound containing medium was then transferred into the wells of a 24 well plate at 0.5 mL per well and warmed for 30 min in a 37° C. incubator prior to transferring washed inserts into the compound containing plates. Cells were incubated in compound containing medium (basolateral only) for 24 h prior to measurement in the MTECC24 system.
Following 24 hr treatment, compound dilutions were prepared again, diluted 1 in 1000 into 37° C. assay medium (F-12 Coon's modified, 20 mM HEPES pH7.4 with TRIS Base, No FCS or bicarbonate). Cells which were treated for 24 h with test compound were then transferred into plates containing 0.75 mL compound treatment in assay medium (basolateral) and 0.25 mL of the compound containing assay medium was added to the apical surface. The plates were then transferred to the heated plate compartments of the MTECC24 system for 45 min prior to measurements (this can also be done in a non-CO2 37° C. humidified incubator). Basolateral temperature should not exceed 36.5° C. and apical temperature should be approximately 35.5° C.
Modulators were added sequentially as follows while the MTECC24 instrument recorded the equivalent short circuit current (Ieq)
Prior to dilution into F-12 medium the stocks are as follows: Amiloride stock is 10 mM in H2O
Forskolin Stock is 10 mM in 100% DMSO
(S)-3-amino-6-methoxy-N-(3,3,3-trifluoro-2-hydroxy-2-methylpropyl)-5-(trifluoromethyl)picolinamide is 0.5 mM stock in 100% DMSO INH-172 (4-[[4-Oxo-2-thioxo-3-[3-trifluoromethyl)phenyl]-5-thiazolidinylidene]methyl]benzoic acid) stock is 30 mM in 100% DMSO […]

T1 sequence (P13569 with tags, fused parts or gaps DEL508-508): as above

Structure (SMILES)	Emax (delF508-CFTR-HRP) [%]	EC50 (delF508-CFTR-HRP) [nM]	MTECC24 CFHBEC-Amax % (delF508-CFTR) [%]	EC50 (delF508-CFTR) [nM]	DelF508-CFTR-HRP Amax % (delF508-CFTR-HRP) [%]
Cc1ccc(C2CCCCC2)c(OC2(C(=O)NS(=O)(=O)c3cccc(N4C[C@@H]5C[C@@H]5[C@H](N)C4)n3)CC2)c1 (relative stereo) [Example 2-44, N-((6-(5-cis-amino-3-azabicyclo[4.1.0]heptan-3-yl)pyridin-2-yl)sulfonyl)-1-(2-cyclohexyl-5-methylphenoxy)cyclopropane-1-carboxamide]	120	3980	66	256	–
Cc1ccc(C2CCCCC2)c(OC2(C(=O)NS(=O)(=O)c3cccc(N4CCC5(CCCC5N)CC4)n3)CC2)c1 (single isomer, unassigned) [Example 2-32-1, N-((6-(1-Amino-8-azaspiro[4.5]decan-8-yl)pyridin-2-yl)sulfonyl)-1-(2-cyclohexyl-5-methylphenoxy)cyclopropanecarboxamide]	–	3350	78	12	537
Cc1ccc(C2CCC(F)(F)CC2)c(OC2(C(=O)NS(=O)(=O)c3cccc(N4CCCC(CO)C4)n3)CC2)c1 (single isomer, unassigned) [Example 3-3-1]	597	2870	99	11	–
Cc1ccc(C2CCC(F)(F)CC2)c(OC2(C(=O)NS(=O)(=O)c3cccc(N4CCCC(CO)C4)n3)CC2)c1 (single isomer, unassigned) [Example 3-3-2, 1-(2-(4,4-Difluorocyclohexyl)-5-methylphenoxy)-N-((6-(3-(hydroxymethyl)piperidin-1-yl)pyridin-2-yl)sulfonyl)cyclopropane-1-carboxamide]	–	2760	78	10	614
Cc1ccc([C@H]2CC[C@H](F)CC2)c(OC2(C(=O)NS(=O)(=O)c3cccc(N4CC(C)(O)C4)n3)CC2)c1 (single isomer, unassigned) [Example 4-1, 1-(2-(Trans-4-fluorocyclohexyl)-5-methylphenoxy)-N-((6-(3-hydroxy-3-methylazetidin-1-yl)pyridin-2-yl)sulfonyl)cyclopropane-1-carboxamide]	297	4030	84	226	–
Cc1ccc(C2CCC(F)(F)C2)c(OC2(C(=O)NS(=O)(=O)c3cccc(N4CCC[C@@H](CO)C4)n3)CC2)c1 (single isomer, unassigned) [Example 4-7]	314	2180	138	156	–
Cc1ccc([C@H]2CC[C@@H](F)CC2)c(OC2(C(=O)NS(=O)(=O)c3cccc(N4CC(C)(O)C4)n3)CC2)c1 (single isomer, unassigned) [Example 4-23, 1-(2-(Cis-4-fluorocyclohexyl)-5-methylphenoxy)-N-((6-(3-hydroxy-3-methylazetidin-1-yl)pyridin-2-yl)sulfonyl)cyclopropane-1-carboxamide]	292	4160	138	167	–
C[C@]1(O)CCN(c2cccc(S(=O)(=O)NC(=O)C3(Oc4cc(Cl)ccc4C4CC5(CCC5)C4)CC3)n2)C1 (single isomer, unassigned) [Example 7-2-1]	674	1420	214.4	289	–
Cc1ccc(C2CCC(C)(C)OC2)c(OC2(C(=O)NS(=O)(=O)c3cccc(N4CCC(O)(c5ccc(Cl)cc5)CC4)n3)CC2)c1 (single isomer, unassigned) [Example 11-1-1, N-((6-(4-(4-chlorophenyl)-4-hydroxypiperidin-1-yl)pyridin-2-yl)sulfonyl)-1-(2-(6,6-dimethyltetrahydro-2H-pyran-3-yl)-5-methylphenoxy)cyclopropane-1-carboxamide]	–	920	148.8	394	920.6
Cc1ccc(C2CCC(C)(C)OC2)c(OC2(C(=O)NS(=O)(=O)c3cccc(N4CCC(O)(c5ccc(Cl)cc5)CC4)n3)CC2)c1 (single isomer, unassigned) [Example 11-1-2, N-((6-(4-(4-chlorophenyl)-4-hydroxypiperidin-1-yl)pyridin-2-yl)sulfonyl)-1-(2-(6,6-dimethyltetrahydro-2H-pyran-3-yl)-5-methylphenoxy)cyclopropane-1-carboxamide]	–	900	191.0	176	819.2
Cc1ccc(C2CCC(C)(C)OC2)c(OC2(C(=O)NS(=O)(=O)c3cccc(N4CCC(O)(C(F)(F)F)CC4)n3)CC2)c1 (single isomer, unassigned) [Example 11-2-2, 1-(2-(6,6-Dimethyltetrahydro-2H-pyran-3-yl)-5-methylphenoxy)-N-((6-(4-hydroxy-4-(trifluoromethyl)piperidin-1-yl)pyridin-2-yl)sulfonyl)cyclopropane-1-carboxamide]	–	1780	100.3	757	361.4
Cc1ccc(C2CCC3(CCCC3)OC2)c(OC2(C(=O)NS(=O)(=O)c3cccc(N4CCC(O)(c5ccc(Cl)cc5)CC4)n3)CC2)c1 (single isomer, unassigned) [Example 11-3-1, N-((6-(4-(4-chlorophenyl)-4-hydroxypiperidin-1-yl)pyridin-2-yl)sulfonyl)-1-(5-methyl-2-(6-oxaspiro[4.5]decan-8-yl)phenoxy)cyclopropane-1-carboxamide]	–	680	100.3	117	380.3
Cc1ccc(C2CCC3(CCCC3)OC2)c(OC2(C(=O)NS(=O)(=O)c3cccc(N4CCC(O)(c5ccc(Cl)cc5)CC4)n3)CC2)c1 (single isomer, unassigned) [Example 11-3-2, N-((6-(4-(4-chlorophenyl)-4-hydroxypiperidin-1-yl)pyridin-2-yl)sulfonyl)-1-(5-methyl-2-(6-oxaspiro[4.5]decan-8-yl)phenoxy)cyclopropane-1-carboxamide]	–	440	79.0	79	481.9
Cc1ccc(C2CCC3(CCC3)OC2)c(OC2(C(=O)NS(=O)(=O)c3cccc(N4CCC(C)(O)CC4)n3)CC2)c1 (single isomer, unassigned) [Example 11-4-1, N-((6-(4-hydroxy-4-methylpiperidin-1-yl)pyridin-2-yl)sulfonyl)-1-(5-methyl-2-(5-oxaspiro[3.5]nonan-7-yl)phenoxy)cyclopropane-1-carboxamide]	–	2260	60.8	1080	460.1

From patent US20220033407A1, “N-(pyridin-2-ylsulfonyl)cyclopropanecarboxamide Derivatives and their Use in the Treatment of Disease” (NOVARTIS AG, priority 2018, published 2022)
